In patent US20260256741A1, “ANTICANCER MALEIMIDE DERIVATIVES FOR USE WITH IMMUNE CHECKPOINT BLOCKADE” (BROWN UNIVERSITY, priority 2022, published 2026):

Legend:
Assay type in all cases: cell-based, human
NK-92 cells [1] = test: 10x single-cell sequencing, NK-92; conditions: 1 μM, 24 hours vs DMSO
Experimental: (§1) Single cells were captured and 3′ single-cell gene expression libraries were conducted (Next GEM v3.1) using the 10× Genomics Chromium system by SingulOmics (SingulOmics, New York, NY, USA). Gene expression libraries were sequenced with ~200 million PE150 reads per sample on Illumina (RRID: SCR_016387) NovaSeq (Illumina, Inc., San Diego, CA, USA). After sequencing clean reads were then analyzed with human reference genome GRCh38 using Cell Ranger v6.1.2 ([RRID: SCR_017344],10× Genomics, Pleasanton, CA, USA). Data were analyzed and visualized using Loupe Browser ([RRID: SCR_018555], 10× Genomics, Pleasanton, CA, USA).

HCT-116 cells = test: Microarray gene expression analysis, HCT-116
Experimental: (§2) A total of 0.5×10^6 tumor cells (HCT-116, HT-29, KM12C) were plated in a 6-well plate and allowed to adhere overnight before 24-hour treatment as indicated. 1×10^6 immune cells (NK92, TALL-104) were plated and treated with elraglusib as indicated for 24 hours. RNA was isolated from cell pellets in batches of 6 using an RNeasy Plus Mini Kit (Cat #74134, Qiagen, Hilden, Germany). Acceptable RNA concentration and quality were verified with Nanodrop and Bioanalyzer measurements. GeneChip™ Human Transcriptome Array 2.0 assays were conducted according to manufacturer instructions in two batches using randomized samples to limit batch effects (Cat #902162, Applied Biosystems, Waltham, MA, USA). Applied Biosystems Transcriptomic Analysis Console (TAC) software (RRID: SCR_016519) was used to calculate fold changes in gene expression relative to the untreated control cells. Values were considered statistically significant for p values <0.05.

TALL-104 cells [2] = test: Microarray gene expression analysis, TALL-104
Experimental: as §2

TALL-104 cells [3] = test: 10x single-cell sequencing, TALL-104; conditions: 1 μM, 24 hours vs DMSO
Experimental: as §1

HT-29 cells = test: Microarray gene expression analysis, HT-29
Experimental: as §2

[4] = system: tumor cells (HCT-116, HT-29); test: Cytokine profiling of tumor cell culture supernatant (Luminex 200); conditions: 48 hours
Experimental: Cells were plated at 3.5×10^4 cells in a 48-well plate (Thermo Fisher Scientific, Waltham, MA, USA) in complete medium and incubated at 37° C. with 5% CO2. At 24 hours after plating, almost all the tumor cells were adherent to the bottom of the flask and the complete medium was replaced with the drug-containing medium. Subsequently, the culture supernatants were collected after 48 hours of incubation and were frozen at −80° C. until the measurement of cytokines was performed. On the day of analysis, samples were thawed and centrifuged to remove cellular debris.
Human cell line culture supernatants were analyzed using an R&D systems Human Premixed Multi-Analyte Kit (R&D Systems, Inc., Minneapolis, MN, USA) and a Luminex 200 (RRID: SCR_018025) Instrument (LX200-XPON-RUO, Luminex Corporation, Austin, TX, USA) according to the manufacturer's instructions. Sample levels of TNF-α, 4-1BB/TNFRSF9/CD137, IL-8/CXCL8, Ferritin, IFN-β, IL-10, CCL2/JE/MCP-1, VEGF, CXCL13/BLC/BCA-1, IFN-γ, CCL20/MIP-3 α, CCL3/MIP-1 α, CCL22/MDC, CCL4/MIP-1 β, Fas Ligand/TNFSF6, IL-17/IL-17A, IL-2, BAFF/BLyS/TNFSF13B, GM-CSF, CXCL5/ENA-78, TRANCE/TNFSF11/RANK L, CXCL9/MIG, G-CSF, IFN-γ R1/CD119, VEGFR3/Flt-4, C-Reactive Protein/CRP, CXCL11/I-TAC, IL-21, CXCL14/BRAK, IL-6, Fas/TNFRSF6/CD95, TRAIL R3/TNFRSF10C, IL-4, CCL5/RANTES, PD-L1/B7-H1, CCL7/MCP-3/MARC, Chitinase 3-like 1, CXCL10/IP-10/CRG-2, IL-1 β/IL-1F2, IL-7, Prolactin, CCL8/MCP-2, TRAIL R2/TNFRSF10B, M-CSF, IL-15, Granzyme B, IFN-α, TREM-1, IL-12/IL-23 p40, TRAIL/TNFSF10, CCL11/Eotaxin, and IL-18/IL-1F4. Quantitative analysis with 6 standards and a minimum of 50 counts per bead region was used with the Luminex to generate analyte values reported as picograms/milliliter (pg/mL). Sample concentrations less than the lower limit of detection for each particular analyte were recoded as the lower limit value divided by ten. Sample concentrations above the upper limit of detection for a particular analyte were recoded as the upper limit of detection.

NK-92 cells [5] = test: Microarray gene expression analysis, NK-92; conditions: IC-50 concentration (1 μM), 24 hours; FC cutoff >1.5, <−1.5, p<0.05
Experimental: as §2

[6] = IC-50 concentration (1 μM), 24 hours, FC cutoff >1.5, <−1.5, p<0.05

## Cn1cc(C2=C(c3coc4ccc(F)cc34)C(=O)NC2=O)c2cc3c(cc21)OCO3 [elraglusib, 3-(5-fluorobenzofuran-3-yl)-4-(5-methyl-5H-[1,3]dioxolo[4,5-f]indol-7-yl)-1H-pyrrole-2,5-dione]
NK-92 cells [1]
  immune cell activation marker CD69 expression: increase
  immune cell attractant CCL4 expression: increase
  immunosuppressive marker CHI3L1 expression: decrease
HCT-116 cells; 24 hours vs DMSO
  CMTM4 gene expression fold change: −1.84 FC
  NEK2 gene expression fold change: −2.21 FC
  PPP1R1C gene expression fold change: 1.78 FC
  downregulated genes in VEGFA-VEGFR2 signaling pathway: 29
HCT-116 cells; [6]
  differentially expressed genes post-treatment: 340
TALL-104 cells [2]; 24 hours vs DMSO
  CCL3 gene expression fold change: 1.52 FC
  KIF7 gene expression fold change: 1.56 FC
  PTPN3 gene expression fold change: −1.56 FC
TALL-104 cells [2]; [6]
  differentially expressed genes post-treatment: 64
TALL-104 cells [3]
  immune cell activation marker CD69 expression: increase
  immune cell chemoattractant CXCR4 expression: increase
  immunosuppressive marker CHI3L1 expression: decrease
HT-29 cells; 24 hours vs DMSO
  NCR3LG1 (B7-H6) gene expression fold change: 1.78 FC
  downregulated genes in VEGFA-VEGFR2 signaling pathway: 37
HT-29 cells; [6]
  differentially expressed genes post-treatment: 2,307
[4]; 1 μM or 5 μM
  CCL5/RANTES secretion: downregulated post-treatment
  DcR3 secretion: downregulated post-treatment
  Fas secretion: downregulated post-treatment
  soluble PD-L1 (sPD-L1) secretion: downregulated post-treatment
[4]; both cell lines, 1 μM and 5 μM
  GDF-15 secretion: decreased secretion
  GM-CSF secretion: decreased secretion
  VEGF secretion: decreased secretion
NK-92 cells [5]
  differentially expressed genes post-treatment: 61
